From publication PMC11079024, “Identification of a family of species-selective complex I inhibitors as potential anthelmintics” (Nature Communications, 2024)
Read-outs that look alike come from different tables or passages of the source.

Legend:
[1] = molecular target: B. taurus (heart) complex I (Bos taurus, UniProt P03887+P17694+P42026); experiment: biochemical; type: biochemical; conditions: for IC50: read-out: B. taurus Complex I IC50; for activity at 0.0001 µM / activity at 0.0005 µM / activity at 0.001 µM / activity at 0.0025 µM / activity at 0.005 µM / activity at 0.013 µM / activity at 0.025 µM / activity at 0.063 µM / activity at 0.125 µM / activity at 0.313 µM / activity at 0.625 µM / activity at 1.5 µM / activity at 3 µM / activity at 15 µM / activity at 37.5 µM / activity at 75 µM: read-out: B. taurus mitochondrial complex I activity; for Log IC50 B. taurus complex I: log10 of IC50 in µM, B. taurus mitochondria
Sequence of B. taurus (heart) complex I (P03887 whole entry): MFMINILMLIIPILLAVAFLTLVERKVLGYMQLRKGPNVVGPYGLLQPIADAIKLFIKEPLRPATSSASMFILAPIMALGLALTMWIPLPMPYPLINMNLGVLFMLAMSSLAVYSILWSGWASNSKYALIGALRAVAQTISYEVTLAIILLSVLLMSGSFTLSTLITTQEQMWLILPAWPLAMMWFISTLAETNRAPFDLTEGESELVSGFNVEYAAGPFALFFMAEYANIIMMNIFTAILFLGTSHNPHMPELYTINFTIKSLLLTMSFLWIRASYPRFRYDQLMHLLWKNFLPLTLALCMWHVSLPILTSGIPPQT
Sequence of B. taurus (heart) complex I (P17694 34-463): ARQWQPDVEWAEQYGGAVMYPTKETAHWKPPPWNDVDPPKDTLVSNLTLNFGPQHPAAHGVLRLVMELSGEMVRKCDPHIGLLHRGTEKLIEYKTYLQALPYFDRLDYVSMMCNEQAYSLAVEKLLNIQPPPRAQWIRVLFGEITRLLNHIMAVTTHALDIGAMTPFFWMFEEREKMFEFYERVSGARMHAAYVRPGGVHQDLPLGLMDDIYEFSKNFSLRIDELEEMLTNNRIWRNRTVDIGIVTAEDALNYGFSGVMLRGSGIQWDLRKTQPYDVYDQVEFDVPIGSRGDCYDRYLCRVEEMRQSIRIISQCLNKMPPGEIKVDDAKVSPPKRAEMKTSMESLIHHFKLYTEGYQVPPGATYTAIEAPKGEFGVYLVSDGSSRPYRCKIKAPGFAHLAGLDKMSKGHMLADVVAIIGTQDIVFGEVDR
Sequence of B. taurus (heart) complex I (P42026 38-216): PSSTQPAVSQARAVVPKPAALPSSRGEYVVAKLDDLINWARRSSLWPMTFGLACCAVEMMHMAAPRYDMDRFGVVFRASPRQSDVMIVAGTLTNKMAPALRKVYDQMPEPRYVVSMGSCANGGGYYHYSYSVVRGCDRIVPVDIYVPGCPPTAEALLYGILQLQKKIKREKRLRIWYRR
Summary of the method: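 Complex I activity followed as DCIP reduction (600 nm, 30 s reads, 15 min) with 80 μM NADH and 60 μM decylubiquinone in 25 mM KPi pH 7.5 containing 2 μM antimycin A and 2 mM KCN. Freeze-thawed mouse or bovine heart mitochondria at 0.2 mg/mL; initial-rate percent of solvent control, single-point 100 μM or dose-response.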

[2] = molecular target: C. elegans (N2) complex I (NADH:ubiquinone oxidoreductase) (Caenorhabditis elegans, UniProt P24887+Q93873+Q94360); experiment: biochemical; type: biochemical; conditions: for Log IC50 C. elegans complex I: log10 of IC50 in µM, C. elegans mitochondria
Sequence of C. elegans (N2) complex I (NADH:ubiquinone oxidoreductase) (Q94360 17-199): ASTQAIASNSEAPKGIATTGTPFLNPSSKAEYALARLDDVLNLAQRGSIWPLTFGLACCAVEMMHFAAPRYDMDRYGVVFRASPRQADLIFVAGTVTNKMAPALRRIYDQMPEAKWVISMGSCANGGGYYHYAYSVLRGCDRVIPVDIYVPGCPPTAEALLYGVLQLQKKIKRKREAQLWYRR
Sequence of C. elegans (N2) complex I (NADH:ubiquinone oxidoreductase) (P24887 whole entry): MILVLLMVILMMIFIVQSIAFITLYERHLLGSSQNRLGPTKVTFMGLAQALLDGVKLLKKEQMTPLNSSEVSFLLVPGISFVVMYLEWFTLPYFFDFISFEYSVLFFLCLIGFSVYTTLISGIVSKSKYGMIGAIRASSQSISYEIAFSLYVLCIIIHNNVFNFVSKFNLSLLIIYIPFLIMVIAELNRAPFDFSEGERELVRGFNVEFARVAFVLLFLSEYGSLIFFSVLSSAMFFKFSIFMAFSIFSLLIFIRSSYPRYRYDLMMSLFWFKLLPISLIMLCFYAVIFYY
Sequence of C. elegans (N2) complex I (NADH:ubiquinone oxidoreductase) (Q93873 31-482): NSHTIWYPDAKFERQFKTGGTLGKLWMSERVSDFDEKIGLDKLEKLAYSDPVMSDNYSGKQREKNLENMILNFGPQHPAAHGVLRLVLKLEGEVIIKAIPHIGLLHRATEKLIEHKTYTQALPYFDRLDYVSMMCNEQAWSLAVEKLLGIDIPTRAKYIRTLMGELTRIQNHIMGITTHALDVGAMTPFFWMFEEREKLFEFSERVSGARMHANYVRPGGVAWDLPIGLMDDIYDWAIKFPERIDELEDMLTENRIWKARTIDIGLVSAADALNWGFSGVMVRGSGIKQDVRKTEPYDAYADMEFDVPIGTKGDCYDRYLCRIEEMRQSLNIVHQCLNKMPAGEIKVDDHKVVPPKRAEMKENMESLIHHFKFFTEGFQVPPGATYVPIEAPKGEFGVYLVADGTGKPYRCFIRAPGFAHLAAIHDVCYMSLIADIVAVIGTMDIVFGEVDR
Summary of the method: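 Complex I rate: initial linear slope of A600 over 15 min, expressed as percent of solvent control. Triple freeze-thawed mitochondria (0.2 mg/mL) in KPi pH 7.5, BSA 3 mg/mL, NADH 80 μM, decylubiquinone 60 μM, DCIP 160 μM, antimycin A, KCN.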

[3] = B. taurus heart mitochondria, estimated from fitted dose-response curves
[4] = read-out: C. elegans mitochondrial complex I activity
[5] = wild-type C. elegans mitochondria, estimated from fitted dose-response curves, read-out: C. elegans Complex I IC50
[6] = in vitro complex I dose response on C. elegans mitochondria, average of at least two biological replicates, fit in R (DRC), read-out: IC50 C. elegans complex I
[7] = wild-type (N2) mitochondria, read-out: C. elegans Complex I IC50
[8] = wild-type C. elegans, mean of replicates, read-out: in vitro complex I activity relative to solvent control, Mean
[9] = wild-type C. elegans, single replicate, read-out: in vitro complex I activity relative to solvent control, individual replicate

Molecule Brc1ccccc1OCCCCn1cnc2ccccc21 [Compound 7924576] has an IC50 [1, 3] of 1.14 µM, an activity at 0.0001 µM [1] of 104% and an activity at 0.0005 µM [1] of 101%. For the same molecule, the activity at 0.001 µM [1] was 108%, the activity at 0.0025 µM [1] was 104% and the activity at 0.005 µM [1] was 101%. It also gave an activity at 0.013 µM [1] of 102%, an activity at 0.025 µM [1] of 102% and an activity at 0.063 µM [1] of 96.3%. For the same molecule, the activity at 0.125 µM [1] was 84.6%, the activity at 0.313 µM [1] was 74.3% and the activity at 0.625 µM [1] was 68%. It also gave an activity at 1.5 µM [1] of 44.1%, an activity at 3 µM [1] of 32% and an activity at 15 µM [1] of 6.52%. The activity at 37.5 µM [1] was 3.45%, the activity at 75 µM [1] was 3.05% and the “Log IC50 B. taurus complex I” value [1] was 0.0569 µM. The activity at 0.0001 µM [2, 4] was 82.9%, the activity at 0.0005 µM [2, 4] was 89.9% and the activity at 0.001 µM [2, 4] was 81.8%. The activity at 0.0025 µM [2, 4] was 93.2%, the activity at 0.005 µM [2, 4] was 91.6% and the activity at 0.013 µM [2, 4] was 87.2%. The activity at 0.025 µM [2, 4] was 76%, the activity at 0.063 µM [2, 4] was 73.6% and the activity at 0.125 µM [2, 4] was 67.2%. It also gave an activity at 0.313 µM [2, 4] of 52.4%, an activity at 0.625 µM [2, 4] of 40.5% and an activity at 1.5 µM [2, 4] of 21.3%. It also gave an activity at 3 µM [2, 4] of 12.5%, an activity at 15 µM [2, 4] of 10.2% and an activity at 75 µM [2, 4] of 5.45%. The “Log IC50 C. elegans complex I” value [2] was -0.37 µM and the IC50 [2, 5] was 0.43 µM.

Molecule CC(C)Oc1cccc(OCCn2cnc3ccccc32)c1 [Compound 7926496] has an IC50 ([1]; B. taurus heart mitochondria) of 2.19 µM, an activity at 0.0001 µM [1] of 89.9% and an activity at 0.0005 µM [1] of 91.2%. For the same molecule, the activity at 0.001 µM [1] was 91.7%, the activity at 0.0025 µM [1] was 85.5% and the activity at 0.005 µM [1] was 94.5%. The activity at 0.013 µM [1] was 90.6%, the activity at 0.025 µM [1] was 91.4% and the activity at 0.063 µM [1] was 86%. It also gave an activity at 0.125 µM [1] of 80.2%, an activity at 0.313 µM [1] of 76.3% and an activity at 0.625 µM [1] of 69.4%. It also gave an activity at 1.5 µM [1] of 53.2%, an activity at 3 µM [1] of 36% and an activity at 15 µM [1] of 9.56%. For the same molecule, the activity at 37.5 µM [1] was 1.81%, the activity at 75 µM [1] was 1.89% and the “Log IC50 B. taurus complex I” value [1] was 0.34 µM. For the same molecule, the activity at 0.0001 µM [2, 4] was 80%, the activity at 0.0005 µM [2, 4] was 92.9% and the activity at 0.001 µM [2, 4] was 87.5%. For the same molecule, the activity at 0.0025 µM [2, 4] was 88.5%, the activity at 0.005 µM [2, 4] was 89.3% and the activity at 0.013 µM [2, 4] was 88.3%. It also gave an activity at 0.025 µM [2, 4] of 81.7%, an activity at 0.063 µM [2, 4] of 79.5% and an activity at 0.125 µM [2, 4] of 81.6%. For the same molecule, the activity at 0.313 µM [2, 4] was 76.9%, the activity at 0.625 µM [2, 4] was 83.9% and the activity at 1.5 µM [2, 4] was 76.4%. For the same molecule, the activity at 3 µM [2, 4] was 65%, the activity at 15 µM [2, 4] was 17.8% and the activity at 37.5 µM ([2]; Dose 37.5 µM, read-out: C. elegans mitochondrial complex I activity) was 0.13%. The activity at 75 µM [2, 4] was 0%, the IC50 [2, 6] was 6.2 µM and the “Log IC50 C. elegans complex I” value [2] was 0.79 µM. It also gave an IC50 ([2]; wild-type C. elegans mitochondria, read-out: C. elegans Complex I IC50) of 6.2 µM.

C=CCn1c(C(C)c2ccc(CC(C)C)cc2)nc2ccccc21 (stereo not shown) [STL020755] was tested, and the IC50 [1, 3] was 16.8 µM, the “Log IC50 B. taurus complex I” value [1] was 1.23 µM and the IC50 [2, 6] was 2.27 µM. For the same molecule, the “Log IC50 C. elegans complex I” value [2] was 0.36 µM, the IC50 [2, 7] was 2.27 µM and the IC50 [2, 5] was 2.27 µM.

CC(C)(C)c1ccc(CCOc2ncnc3ccccc23)cc1 [Fenazaquin, reference compound] showed an IC50 ([1]; heart mitochondria) of 0.024 µM, a remaining activity at 0.0001 µM ([2]; dose 0.0001 µM, wild-type C. elegans, mean of replicates, read-out: in vitro complex I activity relative to solvent control, Mean) of 94.3% and a remaining activity at 0.0005 µM ([2]; dose 0.0005 µM, wild-type C. elegans, mean of replicates, read-out: in vitro complex I activity relative to solvent control, Mean) of 89.7%. For the same molecule, the remaining activity at 0.001 µM [2, 8] was 82.5%, the remaining activity at 0.001 µM [2, 9] was 80.4% and the remaining activity at 0.0025 µM [2, 8] was 63.3%. It also gave a remaining activity at 0.0025 µM [2, 9] of 63.7%, a remaining activity at 0.005 µM [2, 8] of 42.1% and a remaining activity at 0.005 µM [2, 9] of 42.3%. The remaining activity at 0.013 µM [2, 8] was 24%, the remaining activity at 0.013 µM [2, 9] was 25.6% and the remaining activity at 0.025 µM ([2]; dose 0.025 µM, wild-type C. elegans, mean of replicates, read-out: in vitro complex I activity relative to solvent control, Mean) was 12.5%. The remaining activity at 0.063 µM ([2]; dose 0.063 µM, wild-type C. elegans, mean of replicates, read-out: in vitro complex I activity relative to solvent control, Mean) was 5.41%, the remaining activity at 0.125 µM ([2]; dose 0.125 µM, wild-type C. elegans, mean of replicates, read-out: in vitro complex I activity relative to solvent control, Mean) was 2.53% and the remaining activity at 0.313 µM ([2]; dose 0.313 µM, wild-type C. elegans, mean of replicates, read-out: in vitro complex I activity relative to solvent control, Mean) was 1.71%. It also gave a remaining activity at 0.625 µM ([2]; dose 0.625 µM, wild-type C. elegans, mean of replicates, read-out: in vitro complex I activity relative to solvent control, Mean) of 2.18%, a remaining activity at 1.5 µM ([2]; dose 1.5 µM, wild-type C. elegans, mean of replicates, read-out: in vitro complex I activity relative to solvent control, Mean) of 1.91% and a remaining activity at 3 µM ([2]; dose 3 µM, wild-type C. elegans, mean of replicates, read-out: in vitro complex I activity relative to solvent control, Mean) of 1.48%. It also gave a remaining activity at 15 µM ([2]; dose 15 µM, wild-type C. elegans, mean of replicates, read-out: in vitro complex I activity relative to solvent control, Mean) of 1.53%, a remaining activity at 37.5 µM ([2]; dose 37.5 µM, wild-type C. elegans, mean of replicates, read-out: in vitro complex I activity relative to solvent control, Mean) of 1.86% and a remaining activity at 75 µM ([2]; dose 75 µM, wild-type C. elegans, mean of replicates, read-out: in vitro complex I activity relative to solvent control, Mean) of 3.14%. The IC50 [2, 7] was 0.0042 µM.
